Measured values: the supplement of paper PMC10307832

Columns and labels:
Assay in all cases: relative viability (nuclei count vs DMSO), 5 days (fraction); higher = more cells survive
TPCA-1 + Foretinib = compound: C1=CC(=CC=C1C2=CC(=C(S2)NC(=O)N)C(=O)N)F [TPCA-1] + COc1cc2c(Oc3ccc(NC(=O)C4(C(=O)Nc5ccc(F)cc5)CC4)cc3F)ccnc2cc1OCCCN1CCOCC1 [Foretinib] (partner 0.25 µM)
How it was run: (§1)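 Nuclei were stained with Hoechst during a one-step fixation (final 0.05% Triton X-100, 1% formaldehyde, 1 ug/ml Hoechst) carried out 5 days after dosing, then counted on 4× images. The cells, lung cancer lines in 1536-well plates, had been dosed by pin tool the day after seeding with one drug alone or a fixed anchor-drug dose plus five library-drug doses (not always all listed) in √10 steps. Relative viability is the nuclei count in treated wells divided by that in vehicle wells, and each value is the median of duplicate plates.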

[1] = compound: C[C@]12O[C@H](C[C@]1(O)CO)n1c3ccccc3c3c4c(c5c6ccccc6n2c5c31)CNC4=O [Lestaurtinib] + CC(C)C[C@H](NC(=O)[C@H](Cc1ccccc1)NC(=O)c1cnccn1)B(O)O [Bortezomib] (partner 0.002 µM)
How it was run: as §1

[2] = compound: C1/C(=C\C2=CC=CS2)/C(=O)/C(=C/C3=CC=CS3)/C1 + COc1cc2c(Oc3ccc(NC(=O)C4(C(=O)Nc5ccc(F)cc5)CC4)cc3F)ccnc2cc1OCCCN1CCOCC1 [Foretinib] (partner 0.25 µM)
How it was run: as §1

[3] = compound: C[C@]12O[C@H](C[C@]1(O)CO)n1c3ccccc3c3c4c(c5c6ccccc6n2c5c31)CNC4=O [Lestaurtinib] + CCNC(=O)c1noc(-c2cc(C(C)C)c(O)cc2O)c1-c1ccc(CN2CCOCC2)cc1 [Luminespib] (partner 0.01 µM)
How it was run: as §1

Cell Line	relative viability (TPCA-1 + Foretinib; first compound 0.04 µM)	relative viability (TPCA-1 + Foretinib; first compound 0.1265 µM)	relative viability (TPCA-1 + Foretinib; first compound 0.4 µM)	relative viability (TPCA-1 + Foretinib; first compound 1.265 µM)	relative viability (TPCA-1 + Foretinib; first compound 4 µM)	relative viability ([1]; first compound 0.005 µM)	relative viability ([1]; first compound 0.01581 µM)	relative viability ([1]; first compound 0.05 µM)	relative viability ([1]; first compound 0.1581 µM)	relative viability ([1]; first compound 0.5 µM)	relative viability ([2]; first compound 0.2 µM)	relative viability ([2]; first compound 0.6325 µM)	relative viability ([2]; first compound 2 µM)	relative viability ([2]; first compound 6.325 µM)	relative viability ([2]; first compound 20 µM)	relative viability ([3]; first compound 0.005 µM)	relative viability ([3]; first compound 0.01581 µM)	relative viability ([3]; first compound 0.05 µM)	relative viability ([3]; first compound 0.1581 µM)	relative viability ([3]; first compound 0.5 µM)
NCI-H1915	1.17	1.06	1.15	1.07	0.872	0.971	1.06	0.6	0.949	0.284	1.09	1.1	1.01	1.07	1.1	0.766	0.893	0.471	0.663	0.259
BEN	0.654	0.549	0.671	0.679	0.303	0.74	0.998	0.637	0.74	0.328	0.7	0.646	0.78	0.745	0.655	0.249	0.298	0.278	0.326	0.213
NCI-H1437	1.31	1.4	1.25	1.32	1.41	0.67	0.479	0.431	0.521	0.429	1.31	1.3	1.25	1.1	1.23	1.21	1.26	1.06	1.16	0.962
EMC-BAC-2	1.02	0.956	1.05	1.14	0.887	1.1	1.11	0.942	0.678	0.279	1.01	1.03	0.973	0.656	1.09	1.15	1.33	0.806	0.434	0.323
NCI-H647	1.2	1.14	1.11	1.16	0.782	0.994	0.828	0.276	0.244	0.133	1.21	1.22	1.11	0.948	1.21	0.153	0.115	0.12	0.0972	0.0647
LXF-289	0.972	0.966	0.89	0.981	0.692	0.975	1.08	0.75	0.762	0.185	0.982	0.959	0.973	0.994	0.98	0.833	0.746	0.421	0.33	0.293
LOU-NH91	0.984	0.887	0.971	0.97	0.803	0.486	0.549	0.53	0.511	0.373	0.953	0.921	0.919	0.827	0.944	0.341	0.262	0.254	0.301	0.224
NCI-H23	0.947	0.934	0.935	1.08	0.867	0.904	1.04	0.642	1.1	0.255	0.973	1.13	1.07	0.851	0.991	0.241	0.217	0.242	0.184	0.188
NCI-H1993	0.798	0.644	0.75	0.663	0.676	1.11	1	1.45	0.788	0.594	0.748	0.751	0.75	0.572	0.745	0.692	0.442	0.831	0.523	0.569
HCC-827	1.14	1.03	1.06	0.873	0.443	0.923	1.08	0.989	1.11	0.647	1.04	0.939	1.02	0.96	1	0.332	0.505	0.344	0.289	0.33
NCI-H650	1.01	0.947	1.03	0.729	0.858	0.651	1.03	0.678	0.452	0.314	1.02	0.926	0.933	0.945	0.999	0.824	0.703	0.635	0.322	0.239
CAL-12T	1.21	0.989	1.15	1.08	0.716	0.806	1.27	0.888	0.794	0.618	1.34	1.02	1.09	0.981	1.03	0.484	0.52	0.556	0.256	0.06
NCI-H838	1.06	0.99	0.918	0.843	0.769	0.79	0.783	0.615	0.472	0.148	0.998	1.1	1.04	0.812	0.968	0.321	0.321	0.284	0.227	0.197
NCI-H2228	0.899	0.677	0.842	0.717	0.722	0.994	0.805	0.629	0.476	0.185	0.816	0.992	0.869	0.913	0.715	0.185	0.144	0.137	0.123	0.109
RERF-LC-KJ	0.904	0.997	0.883	0.836	0.774	1.43	1.17	0.908	0.836	0.728	0.932	0.929	0.866	0.985	0.808	1.1	1.55	0.828	0.959	0.417
NCI-H661	1.08	1.03	1.06	0.96	0.888	0.736	0.813	0.831	0.685	0.436	1.05	1.02	1.02	0.993	1	0.895	0.88	0.853	0.729	0.363
